{"source": "the NIST ThermoML archive (doi:10.1016/j.jct.2015.09.032)", "key": {"[1]": {"conditions": "Crystal; DTA"}, "[2]": {"assay": "Molar enthalpy of transition or fusion", "conditions": "Crystal; DSC"}}, "note": "± gives the expanded uncertainty stated by the source."}
{"smiles": "CN(C)CCOC(c1ccccc1)c1ccccc1.Cl", "note": "[2-diphenylmethoxy-N,N-dimethylethanamine hydrochloride]", "values": [{"measurement": "Normal melting temperature", "setting": "[1]", "value": "169.2 ± 0.61", "unit": "°C"}, {"measurement": "Molar enthalpy of transition or fusion", "setting": "[2]", "value": "8.72 ± 0.406", "unit": "kcal/mol"}]}
